Where a name gives a salt, the structure may show the parent alone.

These results are taken from patent publication US20210379056A1, “SUBSTITUTED PYRAZOLE FUSED RING DERIVATIVE, PREPARATION METHOD THEREFOR, AND APPLICATION THEREOF” (Applied Pharmaceutical Science, Inc., priority 2018, published 2021).

This assay concerns TT Cell. In words: Cell inhibitory activity test (CCK8). It is filed as cell-based. As to conditions: Homo sapiens, TT, Table 3, 72 hours incubation. As to the method:
Cell Inhibitory Activity Test
1. preparing 90 μl of cell suspension in a 96-well plate with 4000 cells/well. Pre-incubating the culture plate in an incubator for 24 hours (37° C., 5% CO2).
2. adding 10 μl of test compounds of different concentrations to each well of cells, and each compound has multiple wells.
3. incubating the culture plate in the incubator for 72 hours.
4. adding 10 μl of CCK8 solution to each well (be careful not to generate bubbles in the well, otherwise they would affect the reading of the OD value).
5. incubating the culture plate in the incubator for 1-2 hours.
6. measuring the absorbance at 450 nm with a microplate reader.
7. according to the compound concentration and absorbance value, GraphpadPrism software was used to calculate the IC50 of each compound.
Turning to `CN(C)c1ccc(CN2CCN(c3ccc(-c4cc(-c5cnn(C)c5)cn5nc(N)c(C#N)c45)cn3)CC2)cc1` [APS034, 2-amino-4-(6-(4-(4-(dimethylamino)benzyl)piperazin-1-yl)pyridin-3-yl)-6-(1-methyl-1H-pyrazole-4-yl)pyrazolo[1,5-a]pyridine-3-carbonitrile], half-maximal inhibition (IC50) required 32.8 nM.
As for `Cn1cc(-c2cc(-c3ccc(N4CCN(Cc5cnccn5)CC4)nc3)c3c(C#N)c(N)nn3c2)cn1` [APS064, 2-amino-6-(1-methyl-1H-pyrazol-4-yl)-4-(6-(4-(pyrazin-2-yl-methyl)piperazin-1-yl)pyridine-3-yl)pyrazolo[1,5-a]pyridine-3-carbonitrile], the IC50 (commonly the concentration that inhibits the measured activity by half) worked out at 150 nM.
`COc1ccc(CN2C3CC2CN(c2cnc(-c4cc(OC[C@@H]5CNCCO5)cn5nc(F)c(C#N)c45)cn2)C3)cn1` [APS088, 2-fluoro-4-(5-(6-((6-methoxypyridin-3-yl)methyl)-3,6-diazabicyclo[3.1.1]heptan-3-yl)pyrazin-2-yl)-6-(((S)-morpholin-2-yl)methoxy)pyrazolo[1,5-a]pyridine-3-carbonitrile trifluoroacetate] registered an IC50 of 265 nM.
The compound `Cn1cc(-c2cc(-c3ccc(N4CCN(Cc5ccccc5)CC4)nc3)c3c(C#N)c(N)nn3c2)cn1` [APS074, 2-amino-4-(6-(4-benzylpiperazin-1-yl)pyridin-3-yl)-6-(1-methyl-1H-pyrazol-4-yl)pyrazolo[1,5-a]pyridine-3-carbonitrile] displayed an IC50 of 25.2 nM.
In the case of `COc1ccc(CN2CCN(c3ccc(-c4cc(-c5cnn(C)c5)cn5nc(F)c(C#N)c45)cn3)CC2)cn1` [APS084, 2-fluoro-4-(6-(4-((6-methoxypyridin-3-yl)methyl)piperazin-1-yl)pyridin-3-yl)-6-(1-methyl-1H-pyrazol-4-yl)pyrazolo[1,5-a]pyridine-3-carbonitrile] it was 342 nM; in that of `C[C@@H]1CN(c2ccc(-c3cc(-c4cnn(C)c4)cn4nc(N)c(C#N)c34)cn2)CCN1Cc1ccccn1` [APS073, (R)-2-amino-6-(1-methyl-1H-pyrazol-4-yl)-4-(6-(3-methyl-4-(pyridin-2-yl-methyl)piperazine-1-yl)pyridin-3-yl)pyrazolo[1,5-a]pyridine-3-carbonitrile], 144 nM.
The result for `C[C@@H]1CN(Cc2ccccn2)CCN1c1ccc(-c2cc(-c3cnn(C)c3)cn3nc(N)c(C#N)c23)cn1` [APS076, (R)-2-amino-6-(1-methyl-1H-pyrazol-4-yl)-4-(6-(2-methyl-4-(pyridin-2-yl-methyl)piperazine-1-yl)pyridin-3-yl)pyrazolo[1,5-a]pyridine-3-carbonitrile] reads 96.4 nM.
Consider `COc1ccc(CN2C3CC2CN(c2ccc(-c4cc(OCC(C)(C)OC)cn5nc(N)c(C#N)c45)cn2)C3)cn1` [APS110, 2-amino-6-(2-methoxy-2-methylpropoxy)-4-(6-(6-((6-methoxypyridin-3-yl)methyl)-3,6-diazabicyclo[3.1.1]heptan-3-yl)pyridin-3-yl)pyrazolo[1,5-a]pyridine-3-carbonitrile], for which the IC50 amounted to 198 nM. This IC50 lies about 2.1-fold higher than the previous one.
Turning to `CN(C)c1ccc(CN2CCN(c3ccc(-c4cc(-c5cnn(C)c5)cn5nc(N)c(C#N)c45)cn3)CC2)cn1` [APS041, 2-amino-4-(6-(4-((6-(dimethylamino)pyridin-3-yl)methyl)piperazin-1-yl)pyridin-3-yl)-6-(1-methyl-1H-pyrazol-4-yl)pyrazolo[1,5-a]pyridine-3-carbonitrile], the IC50 stood at 32.8 nM.
The result for `Cn1cc(-c2cc(-c3ccc(N4CCN(Cc5ccc(F)cc5)CC4)nc3)c3c(C#N)c(N)nn3c2)cn1` [APS077, 2-amino-4-(6-(4-(4-fluorobenzyl)piperazin-1-yl)pyridin-3-yl)-6-(1-methyl-1H-pyrazol-4-yl) pyrazolo[1,5-a]pyridine-3-carbonitrile] reads 58.3 nM; that for `Cn1cc(-c2cc(-c3ccc(N4CCN(Cc5ccncc5)CC4)nc3)c3c(C#N)c(N)nn3c2)cn1` [APS078, 2-amino-6-(1-methyl-1H-pyrazol-4-yl)-4-(6-(4-(pyridin-4-yl-methyl)piperazin-1-yl)pyridine-3-yl)pyrazolo[1,5-a]pyridine-3-carbonitrile], 57.1 nM; that for `Cn1cc(-c2cc(-c3ccc(N4CCN(Cc5ccc(F)c(F)c5)CC4)nc3)c3c(C#N)c(N)nn3c2)cn1` [APS079, 2-amino-4-(6-(4-(3,4-difluorobenzyl)piperazin-1-yl)pyridin-3-yl)-6-(1-methyl-1H-pyrazole-4-yl)pyrazolo[1,5-a]pyridine-3-carbonitrile], 120 nM.
The result for `Cn1cc(-c2cc(-c3ccc(N4CCN(C(=O)c5c(F)cccc5F)CC4)nc3)c3c(C#N)c(N)nn3c2)cn1` [APS062, 2-amino-4-(6-(4-(2,6-difluorobenzoyl)piperazin-1-yl)pyridin-3-yl)-6-(1-methyl-1H-pyrazole-4-yl)pyrazolo[1,5-a]pyridine-3-carbonitrile] reads 34.1 nM; that for `Cn1cc(-c2cc(-c3ccc(N4CCN(Cc5cccnc5)CC4)nc3)c3c(C#N)c(N)nn3c2)cn1` [APS075, 2-amino-6-(1-methyl-1H-pyrazol-4-yl)-4-(6-(4-(pyridin-3-yl-methyl)piperazin-1-yl)pyridine-3-yl)pyrazolo[1,5-a]pyridine-3-carbonitrile], 122 nM; that for `COc1cccc(CN2CCN(c3ccc(-c4cc(-c5cnn(C)c5)cn5nc(N)c(C#N)c45)cn3)CC2)n1` [APS030, 2-amino-4-(6-(4-((6-methoxypyridin-2-yl)methyl)piperazin-1-yl)pyridin-3-yl)-6-(1-methyl-1H-pyrazol-4-yl)pyrazolo[1,5-a]pyridine-3-carbonitrile], 57.6 nM.
Take `Cn1cc(-c2cc(-c3ccc(N4CCN(Cc5cncc(Cl)c5)CC4)nc3)c3c(C#N)c(N)nn3c2)cn1` [APS021]: the IC50 was determined as 120 nM.
The result for `CCN(CC)C(=O)N1CCN(c2ccc(-c3cc(-c4cnn(C)c4)cn4nc(N)c(C#N)c34)cn2)CC1` [APS016, 4-(5-(2-amino-3-cyano-6-(1-methyl-1H-pyrazol-4-yl)pyrazolo[1,5-a]pyridin-4-yl)pyridine-2-yl)-N,N-diethylpiperazine-1-carboxamide] reads 31.1 nM.
